Five molecules from US4401660A, “Ester derivatives of 5-O-mycaminosyl tylonolide and method of using same” (Eli Lilly and Company, priority 1981, dated 1983) can be followed below.

Molecules are shown by their SMILES. A value given as a limit tells only on which side of the number the result lay.

The subject of assay [1] is Pasteurella multocida. Put plainly: Treatment of Pasteurella infections in chicks (Table V). It counts as in vivo, one-day-old chicks. Particulars: Pasteurella multocida, sc, 4 h; 30 mg/kg by subcutaneous injection one and four hours post challenge; read-out: Deaths in Treated Chicks/Number Treated (converted). The method, then: Certain OMT ester derivatives are active in vivo against Pasteurella infections. Table V summarizes the results of tests in which the ester derivatives were administered to one-day-old chicks at a dosage level of 30 mg/kg by subcutaneous injection one and four hours post challenge of the chicks with Pasteurella multocida (0.1 ml of a 10^-3 dilution of a 20-hour tryptose broth culture of avian P. multocida given subcutaneously). All nonmedicated infected chicks (ten in each control group) died within 24 hours of Pasteurella challenge.

The subject of assay [2] is Haemophilus influenzae Holt. In words: MIC, standard agar-dilution assay (Table II). Format: cell-based. Further details: unit not given here. As to conditions: ampicillin-sensitive strain. As to the method: (§1) The MIC's in Table II were determined by standard agar-dilution assays. The MIC's in Table III were obtained using a conventional broth-dilution microtiter test.

The subject of assay [3] is Staphylococcus epidermidis EPI2. Put plainly: MIC, standard agar-dilution assay (Table II). It counts as cell-based. Further details: unit not given here. As to the method: as §1
For assay [4], the system named is Streptococcus Group D X66. Put plainly: MIC, standard agar-dilution assay (Table II). Format: cell-based. More on the design: unit not given here. As to the method:
as §1

Assay [5] concerns Staphylococcus aureus V41. Put plainly: MIC, standard agar-dilution assay (Table II). As to conditions: Staphylococcus aureus V41, penicillin-resistant strain. Format: cell-based. Further details: unit not given here. The method, then: as §1
The subject of assay [6] is Staphylococcus aureus S13E. Put plainly: MIC, standard agar-dilution assay (Table II). It counts as cell-based. Further details: unit not given here. As to the method: as §1
In assay [7] the test system is Streptococcus Group D 9960. In words: MIC, standard agar-dilution assay (Table II). It counts as cell-based. More on the design: unit not given here. The method, then: as §1
The test system of assay [8] is Streptococcus pyogenes C203. In words: MIC, standard agar-dilution assay (Table II). It counts as cell-based. More on the design: unit not given here. The method, then: as §1
Assay [9] concerns Staphylococcus aureus X400. Put plainly: MIC, standard agar-dilution assay (Table II). Format: cell-based. Further details: unit not given here. Particulars: Staphylococcus aureus X400, methicillin-resistant strain. As to the method: as §1
The test system of assay [10] is Staphylococcus aureus X1.1. Put plainly: MIC, standard agar-dilution assay (Table II). It counts as cell-based. More on the design: unit not given here. The method, then: as §1
For assay [11], the system named is Staphylococcus epidermidis EPI1. In words: MIC, standard agar-dilution assay (Table II). It counts as cell-based. Further details: unit not given here. The method, then: as §1
Assay [12] has as its system Haemophilus influenzae R252. Put plainly: MIC, standard agar-dilution assay (Table II). Further details: unit not given here. Format: cell-based. Particulars: Haemophilus influenzae R252, ampicillin-resistant strain. As to the method:
as §1

In assay [13] the test system is Streptococcus pneumoniae Park I. Put plainly: MIC, standard agar-dilution assay (Table II). Format: cell-based. More on the design: unit not given here. The method, then:
as §1

The subject of assay [14] is Mycoplasma gallisepticum. Put plainly: MIC, broth-dilution microtiter test (Table III). Format: cell-based. Further details: unit not given here. As to the method: as §1
The test system of assay [15] is Staphylococcus aureus. Put plainly: MIC, broth-dilution microtiter test (Table III). More on the design: unit not given here. It counts as cell-based. The method, then:
as §1

Assay [16] deals with Pasteurella multocida 17E. Put plainly: MIC, broth-dilution microtiter test (Table III). Format: cell-based. More on the design: unit not given here. Particulars: bovine isolate. As to the method:
as §1

In assay [17] the test system is Pasteurella multocida 60A. Put plainly: MIC, broth-dilution microtiter test (Table III). Format: cell-based. Further details: unit not given here. As to conditions: avian isolate. The method, then: as §1
Assay [18] has as its system Mycoplasma synoviae. In words: MIC, broth-dilution microtiter test (Table III). Format: cell-based. More on the design: unit not given here. As to the method:
as §1

Assay [19] deals with Streptococcus sp. 80. Put plainly: MIC, broth-dilution microtiter test (Table III). Format: cell-based. More on the design: unit not given here. As to the method:
as §1

Assay [20] deals with Mycoplasma hyorhinis. In words: MIC, broth-dilution microtiter test (Table III). Format: cell-based. Further details: unit not given here. The method, then: as §1

On to `CCCC(=O)OCC1C=C(C)C=CC(=O)C(C)CC(CC=O)C(OC2OC(C)C(O)C(N(C)C)C2O)C(C)C(O)CC(=O)OC1CC` (stereo not shown) [Compound 16], for which, in assay [1], the mortality at 30 mg/kg is 60%. Besides, the “minimal inhibitory concentration (MIC)” value in [2] is 2; in assay [3] it was 0.25; in [4] it was 0.25; in assay [5], 0.25; in assay [6], 0.25; in assay [7], 0.25. Moreover, the “minimal inhibitory concentration (MIC)” value in assay [8] was found to be 0.25; in [9], 0.5; in assay [10] it was 0.25; in assay [11] it was 0.25; in assay [12] it was 2; in assay [13], 0.06. In addition, the “minimal inhibitory concentration (MIC)” value in assay [14] is less than 0.05; in assay [15], 0.39; in assay [16] it was 1.56; in [17], 3.12; in assay [18] it was 0.097; in [19], 0.195. Further, the “minimal inhibitory concentration (MIC)” value in assay [20] is 0.78.
On to `CCC1OC(=O)CC(O)C(C)C(OC2OC(C)C(O)C(N(C)C)C2O)C(CC=O)CC(C)C(=O)C=CC(C)=CC1COC(=O)C(C)C` (stereo not shown) [Compound 18], for which, in [1], the mortality at 30 mg/kg was 0%. In addition, the “minimal inhibitory concentration (MIC)” value is 2 in [2]; 0.5 in [3]; 0.5 in assay [4]; 0.5 in [5]; 0.25 in assay [6]; 0.5 in assay [7]. Moreover, the “minimal inhibitory concentration (MIC)” value in assay [8] was 0.5; in assay [9], 0.5; in [10] it was 0.25; in [11] it was 0.25; in assay [12], 4; in [13] it was 0.25. The “minimal inhibitory concentration (MIC)” value in assay [14] was less than 0.05; in assay [15], 0.78; in assay [16] it was 1.56; in assay [17], 3.12; in assay [18], less than 0.05; in assay [19] it was 0.195. Also, the “minimal inhibitory concentration (MIC)” value in [20] is 0.39.
As to `CCC1OC(=O)CC(O)C(C)C(OC2OC(C)C(OC(C)=O)C(N(C)C)C2OC(C)=O)C(CC=O)CC(C)C(=O)C=CC(C)=CC1COC(=O)C(C)C` (stereo not shown) [Compound 17], in assay [1], the mortality at 30 mg/kg was 100%. Also, the “minimal inhibitory concentration (MIC)” value was 4 in assay [2]; 1 in assay [3]; 1 in [4]; 1 in [5]; 1 in [6]; 1 in [7]. In addition, the “minimal inhibitory concentration (MIC)” value in assay [8] was 1; in assay [9] it was 1; in [10], 1; in assay [11], 0.5; in [12], 4; in [13], 0.25. In addition, the “minimal inhibitory concentration (MIC)” value in assay [14] is less than 0.05; in assay [15] it was 0.195; in assay [16], 1.56; in assay [17], 3.12; in [18], less than 0.05; in assay [19] it was less than 0.05. In [20], the “minimal inhibitory concentration (MIC)” value stood at 0.39.
For `CCCCCCCC(=O)OCC1C=C(C)C=CC(=O)C(C)CC(CC=O)C(OC2OC(C)C(OC(C)=O)C(N(C)C)C2OC(C)=O)C(C)C(O)CC(=O)OC1CC` (stereo not shown) [Compound 23], in assay [1], the mortality at 30 mg/kg is 100%. In addition, the “minimal inhibitory concentration (MIC)” value amounted to 8 in [2]; 0.5 in assay [3]; 1 in [4]; 0.5 in assay [5]; 0.5 in assay [6]; 1 in [7]. Besides, the “minimal inhibitory concentration (MIC)” value in assay [8] is 0.5; in [9], 1; in [10], 0.25; in assay [11], 0.5; in assay [12], 8; in assay [13] it was 0.25. In addition, the “minimal inhibitory concentration (MIC)” value in assay [14] turned out to be 0.097; in assay [15] it was 0.78; in [16], 6.25; in assay [17], 6.25; in assay [18], 0.39; in assay [19], 0.39. Besides, the “minimal inhibitory concentration (MIC)” value in [20] is given as 3.12.
On to `CCCCCCCC(=O)OCC1C=C(C)C=CC(=O)C(C)CC(CC=O)C(OC2OC(C)C(O)C(N(C)C)C2O)C(C)C(O)CC(=O)OC1CC` (stereo not shown) [Compound 24], for which the mortality at 30 mg/kg in assay [1] is 10%. Also, the “minimal inhibitory concentration (MIC)” value worked out at 4 in assay [2]; 0.25 in assay [3]; 0.5 in [4]; 0.5 in assay [5]; 0.25 in assay [6]; 0.5 in assay [7]. The “minimal inhibitory concentration (MIC)” value in [8] was 0.5; in assay [9] it was 0.5; in assay [10] it was 0.25; in assay [11], 0.25; in assay [12] it was 4; in assay [13], 0.125. In addition, the “minimal inhibitory concentration (MIC)” value was less than 0.05 in [14]; 0.78 in assay [15]; 6.25 in assay [16]; 6.25 in [17]; 0.097 in assay [18]; 0.39 in assay [19]. The “minimal inhibitory concentration (MIC)” value in assay [20] was 6.25.
